Columns and labels:
Format in all cases: functional
Laodelphax striatellus [1] = assay: Potency index, ratio of LC50 for imidacloprid to LC50 for test compound against Laodelphax striatella (small brown planthopper) grown on booting stage rice plant stems assessed as insect mortality measured 48 hr post compound treatment by leaf-dip method
Nephotettix cincticeps [2] = assay: Potency index, ratio of LC50 for imidacloprid to LC50 for test compound against Nephotettix cincticeps (green rice leafhopper) grown on booting stage rice plant stems assessed as insect mortality measured 48 hr post compound treatment by leaf-dip method
Laodelphax striatellus [3] = assay: Insecticidal activity against Laodelphax striatella (small brown planthopper) grown on booting stage rice plant stems assessed as insect mortality measured 48 hr post compound treatment by leaf-dip method
Nephotettix cincticeps [4] = assay: Insecticidal activity against Nephotettix cincticeps (green rice leafhopper) grown on booting stage rice plant stems assessed as insect mortality measured 48 hr post compound treatment by leaf-dip method
Mythimna separata [5] = assay: Insecticidal activity against Mythimna separata(Oriental armyworm) second-instar larvae infested on compound pre-treated corn leaves assessed as insect mortality measured 48 hr post compound treatment by leaf-dip method
Mythimna separata [6] = assay: Insecticidal activity against Mythimna separata (Oriental armyworm) second-instar larvae infested on compound pre-treated corn leaves assessed as insect mortality at 500 mg/L measured 48 hr post compound treatment by leaf-dip method
Aphis craccivora [7] = assay: Insecticidal activity against Aphis craccivora (cowpea aphid) infested horsebean plant leaves assessed as insect mortality measured 24 hr post compound treatment by leaf-dip method
Aphis craccivora [8] = assay: Insecticidal activity against Aphis craccivora (cowpea aphid) infested horsebean plant leaves assessed as insect mortality at 500 mg/L measured 24 hr post compound treatment by leaf-dip method

| SMILES | RatioLC50 (Laodelphax striatellus [1]) | RatioLC50 (Nephotettix cincticeps [2]) | LC50 (Laodelphax striatellus [3]) [µM] | LC50 (Nephotettix cincticeps [4]) [µM] | LC50 (Mythimna separata [5]) [µM] | mortality at 500 µg/mL (Mythimna separata [6]) [%] | LC50 (Aphis craccivora [7]) [µM] | mortality at 500 µg/mL (Aphis craccivora [8]) [%] |
| --- | --- | --- | --- | --- | --- | --- | --- | --- |
| Cl.O=[N+]([O-])/C(=C\c1cccs1)C1=NCCN1Cc1ccc(Cl)nc1 | 3.6 | 17.1 | 14 | 1.22 | 52.9 | 100 | 4.23 | 100 |
| O=[N+]([O-])/C(=C\c1ccco1)C1=NCCN1Cc1ccc(Cl)cc1 | – | – | – | – | – | 67.2 | 234 | 98 |
| Cc1cc(/C=C(/C2=NCCN2Cc2ccc(Cl)nc2)[N+](=O)[O-])oc1C | – | – | – | – | – | 0 | 4.65 | 100 |
| Cl.O=[N+]([O-])/C(=C\c1ccco1)C1=NCCN1Cc1ccc(Cl)nc1 | 6.9 | 16 | 7.23 | 1.3 | 24.7 | 100 | 3.72 | 100 |
| O=[N+]([O-])/C(=C\c1ccc(Cl)o1)C1=NCCCN1Cc1ccc(Cl)nc1 | – | – | – | – | – | 96.7 | 60.9 | 100 |
| O=[N+]([O-])/C(=C\c1ccc(Cl)o1)C1=NCCN1Cc1ccc(Cl)nc1 | – | – | – | – | 37.6 | 100 | 7.54 | 100 |
| Cl.O=[N+]([O-])/C(=C\c1ccc(CO)o1)C1=NCCN1Cc1ccc(Cl)nc1 | – | 18.8 | – | 1.11 | 33.9 | 100 | 10.6 | 100 |
| O=[N+]([O-])/C(=C\c1ccc(Br)o1)C1=NCCN1Cc1ccc(Cl)nc1 | – | – | – | 2.54 | 39.7 | 100 | 7.3 | 100 |
| O=[N+]([O-])/C(=C\c1ccco1)C1=NCCCN1Cc1ccc(Cl)nc1 | – | – | – | – | – | 16.7 | 76.4 | 100 |
| O=[N+]([O-])/C(=C\c1cccs1)C1=NCCCN1Cc1ccc(Cl)nc1 | – | – | – | – | – | 73.3 | 20.5 | 100 |
| CCc1ccc(/C=C(/C2=NCCN2Cc2ccc(Cl)nc2)[N+](=O)[O-])o1 | – | – | – | – | 97.9 | 100 | 1.82 | 100 |
| O=[N+]([O-])/C(=C\c1ccc[nH]1)C1=NCCN1Cc1ccc(Cl)nc1 | – | – | – | – | 39.7 | 100 | 11.2 | 100 |
| Cc1ccc(/C=C(/C2=NCCN2Cc2ccc(Cl)nc2)[N+](=O)[O-])s1 | – | – | – | – | 29.7 | 100 | 3.11 | 100 |
| O=[N+]([O-])/C(=C\c1ccco1)C1=NCCN1Cc1cnc(Cl)s1 | – | – | – | – | 107 | 100 | 3.5 | 100 |
| Cc1ccc(/C=C(/C2=NCCN2Cc2ccc(Cl)nc2)[N+](=O)[O-])o1 | – | – | – | 4.05 | 53.1 | 100 | 6.34 | 100 |
| Cc1ccc(/C=C(/C2=NCCCN2Cc2ccc(Cl)nc2)[N+](=O)[O-])s1 | – | – | – | – | – | 63.3 | 24.6 | 100 |
| O=[N+]([O-])/N=C1\NCCN1Cc1ccc(Cl)nc1 [IMIDACLOPRID] | – | – | 49.8 | 20.9 | – | – | 35 | 100 |
| Cc1ccc(/C=C(/C2=NCCCN2Cc2ccc(Cl)nc2)[N+](=O)[O-])o1 | – | – | – | – | – | 33.3 | 698 | 100 |
| O=[N+]([O-])/C(=C\c1ccc([N+](=O)[O-])o1)C1=NCCN1Cc1ccc(Cl)nc1 | – | – | – | 154 | 69.5 | 100 | 11.1 | 100 |
| O=[N+]([O-])/C(=C\c1ccsc1)C1=NCCN1Cc1ccc(Cl)nc1 | – | – | – | – | – | 0 | – | 31.9 |
| O=[N+]([O-])/C(=C\c1cc(Br)cs1)C1=NCCN1Cc1ccc(Cl)nc1 | – | – | – | – | – | 0 | – | 0 |
| O=[N+]([O-])/C(=C\c1ccoc1)C1=NCCN1Cc1ccc(Cl)nc1 | – | – | – | – | 55.3 | 100 | 4.46 | 100 |
| O=[N+]([O-])/C(=C\c1ccco1)C1=NCCN1Cc1ccccc1 | – | – | – | – | – | 46.6 | – | 0 |

Source: ChEMBL document CHEMBL3046354, “Design, synthesis, and insecticidal activities of novel analogues of neonicotinoids: replacement of nitromethylene with nitroconjugated system” (2009)
